ILSmax, Optimal dose and IC50 data for 20 molecules are collected here from ChEMBL document CHEMBL1130788, “Synthesis and antitumor activity of leinamycin derivatives: modifications of C-8 hydroxy and C-9 keto groups” (Bioorg Med Chem Lett, 1998).

A value given as a limit tells only on which side of the number the result lay.

For test [1], the system named is P388. Description: In vivo antitumor activity of compound was tested as maximal increase in life span (ILSmax) against lymphocytic leukemia P388 in mice. Format: functional, Mus musculus.
The test system of test [2] is P388. Description: Compound was tested in vivo for antitumor activity against lymphocytic leukemia P388 in mice. In kind it is functional, Mus musculus.
The test system of test [3] is HeLa. Description: In vitro antiproliferative activity against human uterine carcinoma HeLa S3 cells. In kind it is functional, cell-based.

`C/C1=C\[C@@H](OC(=O)C2CCCCC2)C(=O)/C=C/C=C\c2csc(n2)[C@@H](C)NC(=O)C[C@@]2(CC1)[S+]([O-])SC(=O)[C@]2(C)O` (stereo partly drawn): the ILSmax in test [1] was 49%. In addition, in test [2], the Optimal dose was 4 mg/kg. In test [3] (Homo sapiens, HeLa), inhibition was half-maximal at 0.058 µM (IC50).

On to `C/C1=C\[C@@H](OC(=O)c2ccccc2)C(=O)/C=C/C=C\c2csc(n2)[C@@H](C)NC(=O)C[C@@]2(CC1)[S+]([O-])SC(=O)[C@]2(C)O` (stereo partly drawn), for which the ILSmax in test [1] was found to be 36%. The Optimal dose in test [2] was 2 mg/kg. In test [3] (Homo sapiens, HeLa), this molecule gave an IC50 of 0.13 µM.

In turn, `CCOC(=O)O[C@@H]1/C=C(\C)CC[C@]2(CC(=O)N[C@H](C)c3nc(cs3)/C=C\C=C\C1=O)[S+]([O-])SC(=O)[C@]2(C)O` (stereo partly drawn) had an ILSmax in test [1] of 31%. This molecule also gave an Optimal dose in test [2] of 2 mg/kg. The molecule further gave a half-inhibitory concentration (IC50) in test [3] (Homo sapiens, HeLa) of 0.0014 µM.

In test [1], `C/C1=C\[C@@H](OC(=O)Oc2ccc([N+](=O)[O-])cc2)C(=O)/C=C/C=C\c2csc(n2)[C@@H](C)NC(=O)C[C@@]2(CC1)[S+]([O-])SC(=O)[C@]2(C)O` (stereo partly drawn) displayed an ILSmax of 57%. Moreover, the Optimal dose in test [2] turned out to be 2 mg/kg. In addition, in test [3] (Homo sapiens, HeLa), the IC50 was 0.022 µM.

For the molecule `CC(=O)O[C@@H]1/C=C(\C)CC[C@]2(CC(=O)N[C@H](C)c3nc(cs3)/C=C\C=C\C1=O)[S+]([O-])SC(=O)[C@]2(C)O` (stereo partly drawn), the ILSmax in test [1] was found to be 34%. Besides, the Optimal dose in test [2] was 1 mg/kg. The molecule further showed an IC50 in test [3] (Homo sapiens, HeLa) of 0.01 µM.

With `C/C1=C\[C@@H](OC2CCCCO2)C(=O)/C=C/C=C\c2csc(n2)[C@@H](C)NC(=O)C[C@@]2(CC1)[S+]([O-])SC(=O)[C@]2(C)O` (stereo partly drawn), the ILSmax in test [1] worked out at 28%. The molecule further yielded an Optimal dose in test [2] of 0.13 mg/kg. In test [3] (Homo sapiens, HeLa), this molecule displayed an IC50 of 0.0013 µM.

For `C/C1=C\[C@@H](OC(=O)c2cnc3ccccc3n2)C(=O)/C=C/C=C\c2csc(n2)[C@@H](C)NC(=O)C[C@@]2(CC1)[S+]([O-])SC(=O)[C@]2(C)O` (stereo partly drawn), the ILSmax in test [1] worked out at 44%. The Optimal dose in test [2] is 2 mg/kg. In test [3] (Homo sapiens, HeLa), this molecule showed an IC50 of 0.0068 µM.

For `C/C1=C\[C@@H](O)C(=N/O)/C=C/C=C\c2csc(n2)[C@@H](C)NC(=O)C[C@@]2(CC1)[S+]([O-])SC(=O)[C@]2(C)O` (stereo partly drawn), half-maximal inhibition in test [3] (Homo sapiens, HeLa) (IC50) required 0.91 µM.

The molecule `CCCCCCCCCCCCCCCC(=O)O[C@@H]1/C=C(\C)CC[C@]2(CC(=O)N[C@H](C)c3nc(cs3)/C=C\C=C\C1=O)[S+]([O-])SC(=O)[C@]2(C)O` (stereo partly drawn) came in with an ILSmax in test [1] of 37%. Further, in test [2], the Optimal dose turned out to be 16 mg/kg. In addition, the IC50 in test [3] (Homo sapiens, HeLa) amounted to 7.7 µM.

Regarding `C/C1=C\[C@@H](OC(=O)N2CCCCC2)C(=O)/C=C/C=C\c2csc(n2)[C@@H](C)NC(=O)C[C@@]2(CC1)[S+]([O-])SC(=O)[C@]2(C)O` (stereo partly drawn), in test [3] (Homo sapiens, HeLa), it took 0.18 µM to reach half-maximal inhibition (IC50).

Regarding `COC1(O[C@@H]2/C=C(\C)CC[C@]3(CC(=O)N[C@H](C)c4nc(cs4)/C=C\C=C\C2=O)[S+]([O-])SC(=O)[C@]3(C)O)CCOCC1` (stereo partly drawn), the ILSmax in test [1] is 35%. Also, the Optimal dose in test [2] was 2 mg/kg. Moreover, the IC50 in test [3] (Homo sapiens, HeLa) was 0.018 µM.

Take `CC(=O)O[C@@H]1/C=C(\C)CC[C@]2(CC(=O)N[C@H](C)c3nc(cs3)/C=C\C=C\C1=O)[S+]([O-])SC(=O)[C@]2(C)OC(C)=O` (stereo partly drawn): the ILSmax in test [1] was 15%. Moreover, in test [2], the Optimal dose was found to be 2 mg/kg. The IC50 in test [3] (Homo sapiens, HeLa) was 0.78 µM.

`COC1(OC)/C=C/C=C\c2csc(n2)[C@@H](C)NC(=O)C[C@@]2(CC/C(C)=C/[C@H]1O)[S+]([O-])SC(=O)[C@]2(C)O` (stereo partly drawn) came in with an IC50 in test [3] (Homo sapiens, HeLa) above 10 µM.

On to `C/C1=C\[C@@H](O)C(O)/C=C/C=C\c2csc(n2)[C@@H](C)NC(=O)C[C@@]2(CC1)[S+]([O-])SC(=O)[C@]2(C)O` (stereo in doubt; 7-1), for which, in test [3] (hela), the IC50 was 6.2 µM.

Regarding `C/C1=C\[C@@H](O)C(O)/C=C/C=C\c2csc(n2)[C@@H](C)NC(=O)C[C@@]2(CC1)[S+]([O-])SC(=O)[C@]2(C)O` (stereo in doubt; 7-2), the midpoint of inhibition in test [3] (Homo sapiens, HeLa), the IC50, lay at 4.9 µM.

As for `CO\N=C1/C=C/C=C\c2csc(n2)[C@@H](C)NC(=O)C[C@@]2(CC/C(C)=C/[C@H]1O)[S+]([O-])SC(=O)[C@]2(C)O` (stereo in doubt; 9b-1), in test [3] (hela), the IC50 was found to be 0.067 µM.

With `CO\N=C1/C=C/C=C\c2csc(n2)[C@@H](C)NC(=O)C[C@@]2(CC/C(C)=C/[C@H]1O)[S+]([O-])SC(=O)[C@]2(C)O` (stereo in doubt; 9b-2), the ILSmax in test [1] was 21%. The Optimal dose in test [2] was found to be 2 mg/kg. The same molecule returned an IC50 in test [3] (Homo sapiens, HeLa) of 0.11 µM.

In turn, `C/C1=C\[C@@H](O)C(=N/OCc2ccccc2)/C=C/C=C\c2csc(n2)[C@@H](C)NC(=O)C[C@@]2(CC1)[S+]([O-])SC(=O)[C@]2(C)O` (stereo in doubt; 9c-1) came in with an ILSmax in test [1] of 29%. Also, the Optimal dose in test [2] amounted to 8 mg/kg. Also, the IC50 in test [3] (hela) stood at 0.11 µM.

Take `C/C1=C\[C@@H](O)C(=N/OCc2ccccc2)/C=C/C=C\c2csc(n2)[C@@H](C)NC(=O)C[C@@]2(CC1)[S+]([O-])SC(=O)[C@]2(C)O` (stereo in doubt; 9c-2): in test [1], the ILSmax is on record as 31%. The Optimal dose in test [2] was 2 mg/kg. In test [3] (hela), this molecule had an IC50 of 0.0095 µM.

On to `C/C1=C\[C@@H](O)C(=O)/C=C/C=C\c2csc(n2)[C@@H](C)NC(=O)C[C@@]2(CC1)[S+]([O-])SC(=O)[C@]2(C)O` (stereo partly drawn) [LEINAMYCIN], for which the ILSmax in test [1] turned out to be 57%. Moreover, the Optimal dose in test [2] is 0.38 mg/kg. In test [3] (Homo sapiens, HeLa), this molecule registered an IC50 of 0.011 µM.

A word on the IC50: it is the concentration that gives 50% inhibition. Low readings indicate greater potency in that assay, high ones weaker potency in that assay.
